Assay results as given in US20050089583A1, “Novel herbal composition for the treatment of gastric ulcer” (priority 2003, published 2005).

Assays:
[1] = system: Cold Restraint Ulcers (CRU); test: Cold restraint ulcer (CRU) model; format: in vivo, rats
Method: Method: Adult rats of either sex, weighing 150-175 Gms were fasted for 24 hours with free access to water. The test drugs were administered 45 minutes before immobilizing the animals. The rats were immobilized in the restraint cage at 4° C. in BOD incubator for 2 hrs and were sacrificed immediately after the restraint period. (According to the method of Senay and Levine 1967). The abdomen was cut opened; stomach was taken out and incised along the greater curvature to observe the gastric lesions with the help of Magnascope (5× magnification).
(§1) The following arbitrary scoring system was used to grade the severity and intensity of the lesions. • 1. Shedding of epithelium=10 • 2. Petechial and frank hemorrhages=20 • 3. One or two ulcers=30 • 4. More than two ulcers=40 • 5. Perforated ulcers=50 The presence of any of these lesions was considered as a positive ulcerogenic response which has been shown as percentage of rats showing gastric lesions.
(§2) The severity of ulcers is expressed in terms of ulcer index, which is the mean score of gastric lesions of all the rats in a group which is defined as: • Ulcer Index (U. I.)=Us+Up×10^−1 • Where Us=Mean severity of ulcer score and Up-Percentage of animals with Ulcer incidences.
(§3) The percentage protection is calculated as follows: • Percentage protection ═(C-T/C)×100. • Wherein • C=Number of animals showing ulcer response in control group and • T=Number of animals showing ulcer response in test group.

[2] = system: aspirin induced gastric ulcer; test: Aspirin induced gastric ulcer model; format: in vivo, rats
Description: as §1, §2, §3
Method: Gastric ulceration was induced by aspirin according to the method of Djahanguiri (1969). Aspirin (150 mg/Kg.) was administered per orally as a suspension in gum-acacia and the animal was sacrificed 5 hr. after the aspirin treatment and the ulcer index with protection index were calculated.

[3] = system: Histamine induced ulcer; test: Histamine induced ulcer model; format: in vivo, guinea pig; conditions: HF2 50 mg/Kg p.o., Omeprazole 10 mg/kg p.o.
Method: Method: Animals were fasted for 24 hours with access to water. The drug was given orally 1 hour prior to the histamine administration. Histamine was administered in a dose of 0.25 mg/Kg, i.m. at 30 minutes interval-for 7 times and it induced 100% duodenal ulceration in guinea pig (According to the method of Watt and Eagleton 1964)^4. The animals were sacrificed after half an hour of last injection under ether anesthesia. The stomach along with duodenum was removed washed thoroughly and examined for the lesions and ulcer index with protection index was calculated. The effect of the herbal composition “HF2” and the standard drug “Omeprazole” against Histamine induced ulcer model is given in Table 4.

[4] = HF 2 100 mg/Kg p.o., Omeprazole 10 mg/Kg p.o.

Structure (SMILES): COc1ccc2[nH]c([S+]([O-])Cc3ncc(C)c(OC)c3C)nc2c1 (stereo not shown) [Omeprazole]
- protection against cold restraint ulcer model [1]: 54.03%
- Percentage of ulcer incidence ([1]; HF2 50 mg/Kg p.o., Omeprazole 10 mg/Kg p.o.): 50%
- Ulcer severity (type of lesions) score 10 (No. of rats showing lesions/No. of rats tested) ([1]; score 10 = shedding of epithelium, HF2 50 mg/Kg p.o., Omeprazole 10 mg/Kg p.o., 4° C., 2 hrs restraint): 3/10
- Ulcer severity (type of lesions) score 20 (No. of rats showing lesions/No. of rats tested) ([1]; score 20 = petechial and frank hemorrhages, HF2 50 mg/Kg p.o., Omeprazole 10 mg/Kg p.o.): 2/10
- protection against aspirin induced ulcer model [2]: 39.41%
- Ulcer severity (type of lesions) score 20 (No. of rats showing lesions/No. of rats tested) ([2]; Aspirin 150 mg/Kg p.o., HF 2 100 mg/Kg p.o., Omeprazole 10 mg/Kg p.o.): 2/6
- Ulcer severity (type of lesions) score 10 (No. of rats showing lesions/No. of rats tested) ([2]; Aspirin 150 mg/Kg p.o., HF 2 100 mg/Kg p.o., Omeprazole 10 mg/Kg p.o., 5 hr): 2/6
- Mean severity of ulcer score [2, 4]: 10.0
- Percentage of ulcer incidence [2, 4]: 66.7%
- Protection index [2, 4]: 39.41
- Ulcer index [2, 4]: 7.67
- Percentage of ulcer incidence [3]: 33.3%
- Ulcer severity (type of lesions) score 20 (No. Guinea pig showing lesions/No. of Guinea pig tested) ([3]; Histamine 0.25 mg/Kg i.m. × 7): 1/3
